Experimental data reported in PubChem BioAssay (NCI).
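48-hour exposure; five concentrations; linearly interpolated endpoints. The concentration for 50% growth inhibition is given as GI50. TGI is the concentration that stops growth completely.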

Experiments:
Test in all cases: growth of human tumour cells (NCI), 48 h
[1] = tested on: HCT-15 colon
[2] = tested on: MDA-MB-231 breast
[3] = tested on: NCI-H226 lung
[4] = tested on: MALME-3M melanoma
[5] = tested on: PC-3 prostate
[6] = tested on: UACC-257 melanoma
[7] = tested on: A498 renal
[8] = tested on: LOX IMVI melanoma
[9] = tested on: UO-31 renal
[10] = tested on: M14 melanoma
[11] = tested on: HOP-62 NSCLC
[12] = tested on: SK-MEL-5 melanoma
[13] = tested on: HCT-116 colon
[14] = tested on: SF-539 CNS
[15] = tested on: CAKI-1 renal
[16] = tested on: DU-145 prostate
[17] = tested on: SK-MEL-28 melanoma
[18] = tested on: ACHN renal
[19] = tested on: TK-10 renal
[20] = tested on: U251 CNS
[21] = tested on: CCRF-CEM leukemia
[22] = tested on: OVCAR-4 ovarian
[23] = tested on: SNB-75 CNS
[24] = tested on: MOLT-4 leukemia
[25] = tested on: SR leukemia
[26] = tested on: 786-0 renal
[27] = tested on: IGROV1 ovarian
[28] = tested on: OVCAR-3 ovarian
[29] = tested on: SW-620 colon
[30] = tested on: NCI-H460 lung
[31] = tested on: OVCAR-5 ovarian
[32] = tested on: A549 NSCLC
[33] = tested on: NCI/ADR-RES ovarian
[34] = tested on: SN12C renal
[35] = tested on: T-47D breast
[36] = tested on: COLO 205 colon
[37] = tested on: SK-OV-3 ovarian
[38] = tested on: HL-60(TB) leukemia
[39] = tested on: HS 578T breast
[40] = tested on: SF-268 CNS
[41] = tested on: KM12 colon
[42] = tested on: HOP-92 NSCLC
[43] = tested on: UACC-62 melanoma
[44] = tested on: BT-549 breast
[45] = tested on: HCC-2998 colon
[46] = tested on: RPMI-8226 leukemia
[47] = tested on: MCF7 breast
[48] = tested on: K-562 leukemia
[49] = tested on: SF-295 CNS
[50] = tested on: HT29 colon
[51] = tested on: SNB-19 CNS
[52] = tested on: EKVX NSCLC
[53] = tested on: NCI-H23 lung
[54] = tested on: OVCAR-8 ovarian
[55] = tested on: MDA-MB-435
[56] = tested on: SK-MEL-2 melanoma
[57] = tested on: RXF 393 renal
[58] = tested on: NCI-H522 lung

Structure (SMILES): CCCCCCCCCCCCCCCC[N+]1(CC)CCCC1
- GI50 [1]: 1350 nM
- TGI [1]: 5490 nM
- GI50 [2]: 589 nM
- TGI [2]: 2190 nM
- GI50 [3]: 1180 nM
- TGI [3]: 5950 nM
- GI50 [4]: 582 nM
- TGI [4]: 1980 nM
- GI50 [5]: 284 nM
- TGI [5]: 1150 nM
- GI50 [6]: 1580 nM
- TGI [6]: 3760 nM
- GI50 [7]: 397 nM
- TGI [7]: 2940 nM
- GI50 [8]: 162 nM
- TGI [8]: 454 nM
- GI50 [9]: 2790 nM
- TGI [9]: 11600 nM
- GI50 [10]: 474 nM
- TGI [10]: 1720 nM
- GI50 [11]: 1030 nM
- TGI [11]: 2520 nM
- GI50 [12]: 400 nM
- TGI [12]: 1520 nM
- GI50 [13]: 361 nM
- TGI [13]: 1400 nM
- GI50 [14]: 683 nM
- TGI [14]: 1980 nM
- GI50 [15]: 1750 nM
- TGI [15]: 11300 nM
- GI50 [16]: 840 nM
- TGI [16]: 2140 nM
- GI50 [17]: 1180 nM
- TGI [17]: 2810 nM
- GI50 [18]: 1330 nM
- TGI [18]: 4430 nM
- GI50 [19]: 266 nM
- TGI [19]: 1210 nM
- GI50 [20]: 363 nM
- TGI [20]: 1350 nM
- GI50 [21]: 379 nM
- TGI [21]: 1840 nM
- GI50 [22]: 315 nM
- TGI [22]: 2250 nM
- GI50 [23]: 247 nM
- TGI [23]: 1110 nM
- GI50 [24]: 486 nM
- TGI [24]: 2190 nM
- GI50 [25]: 655 nM
- TGI [25]: 4420 nM
- GI50 [26]: 1180 nM
- TGI [26]: 2610 nM
- GI50 [27]: 432 nM
- TGI [27]: 1870 nM
- GI50 [28]: 478 nM
- TGI [28]: 1650 nM
- GI50 [29]: 410 nM
- TGI [29]: 1650 nM
- GI50 [30]: 437 nM
- TGI [30]: 1620 nM
- GI50 [31]: 439 nM
- TGI [31]: 1810 nM
- GI50 [32]: 1070 nM
- TGI [32]: 2590 nM
- GI50 [33]: 12900 nM
- TGI [33]: 38400 nM
- GI50 [34]: 1100 nM
- TGI [34]: 2440 nM
- GI50 [35]: 528 nM
- TGI [35]: 3930 nM
- GI50 [36]: 291 nM
- TGI [36]: 731 nM
- GI50 [37]: 1020 nM
- TGI [37]: 3050 nM
- GI50 [38]: 339 nM
- TGI [38]: 1140 nM
- GI50 [39]: 679 nM
- TGI [39]: 3260 nM
- GI50 [40]: 454 nM
- TGI [40]: 1680 nM
- GI50 [41]: 730 nM
- TGI [41]: 2040 nM
- GI50 [42]: 227 nM
- TGI [42]: 1330 nM

Structure (SMILES): [O-]c1c2cc(-[n+]3c(-c4ccccc4)cc(-c4ccccc4)cc3-c3ccccc3)cc1CO[C@@H](c1ccccc1)[C@H](c1ccccc1)OCc1cccc(n1)CO[C@@H](c1ccccc1)[C@H](c1ccccc1)OC2
- TGI [43]: 1680 nM

Structure (SMILES): CCN(CC)CCC(=O)Nc1ccc(Cn2nnc3c2C(=O)c2nnn(Cc4ccc(NC(=O)CCN(CC)CC)cc4)c2C3=O)cc1
- GI50 [44]: 1640 nM
- TGI [44]: 3060 nM
- GI50 [1]: 26700 nM
- TGI [1]: > 100000 nM
- GI50 [2]: 253 nM
- TGI [2]: 10200 nM
- GI50 [45]: 316 nM
- TGI [45]: 987 nM
- GI50 [3]: 1510 nM
- TGI [3]: 3460 nM
- GI50 [4]: 137 nM
- TGI [4]: 294 nM
- GI50 [5]: 1980 nM
- TGI [5]: 6870 nM
- GI50 [6]: 1010 nM
- TGI [6]: 2790 nM
- GI50 [7]: 2450 nM
- TGI [7]: 9490 nM
- GI50 [8]: 232 nM
- TGI [8]: 703 nM
- GI50 [46]: 530 nM
- TGI [46]: 3150 nM
- GI50 [9]: > 41100 nM
- TGI [9]: > 61800 nM
- GI50 [10]: 1490 nM
- TGI [10]: 3430 nM
- GI50 [11]: 1750 nM
- TGI [11]: 3420 nM
- GI50 [47]: 154 nM
- TGI [47]: 373 nM
- GI50 [12]: 485 nM
- TGI [12]: 1250 nM
- GI50 [13]: 283 nM
- TGI [13]: 1120 nM
- GI50 [14]: 295 nM
- TGI [14]: 821 nM
- GI50 [15]: > 71100 nM
- TGI [15]: > 100000 nM
- GI50 [16]: 1050 nM
- TGI [16]: 2250 nM
- GI50 [17]: 1090 nM
- TGI [17]: 2820 nM
- GI50 [18]: 12500 nM
- TGI [18]: 34100 nM
- GI50 [19]: 13200 nM
- TGI [19]: 30800 nM
- GI50 [48]: 669 nM
- TGI [48]: > 37900 nM
- GI50 [20]: 254 nM
- TGI [20]: 688 nM
- GI50 [21]: 240 nM
- GI50 [22]: 133 nM
- TGI [22]: 263 nM
- GI50 [23]: 314 nM
- TGI [23]: 880 nM
- GI50 [24]: 242 nM
- TGI [24]: 628 nM
- GI50 [25]: 507 nM
- TGI [25]: 5000 nM
- GI50 [26]: 8970 nM
- TGI [26]: > 72300 nM
- GI50 [27]: 411 nM
- TGI [27]: 1370 nM
- GI50 [49]: 1930 nM
- TGI [49]: 5330 nM
- GI50 [28]: 265 nM
- TGI [28]: 778 nM
- GI50 [29]: 395 nM
- TGI [29]: 1750 nM
- GI50 [43]: 1080 nM
- TGI [43]: 2670 nM
- GI50 [50]: 304 nM
- TGI [50]: 787 nM
- GI50 [30]: 356 nM
- TGI [30]: 1460 nM
- GI50 [31]: 994 nM
- TGI [31]: 3340 nM
- GI50 [51]: 186 nM
- TGI [51]: 373 nM
- GI50 [32]: 1510 nM
- TGI [32]: 3400 nM
- GI50 [33]: > 100000 nM
- TGI [33]: > 100000 nM
- GI50 [34]: 184 nM
- TGI [34]: 385 nM
- GI50 [52]: 1540 nM
- TGI [52]: 3050 nM
- GI50 [53]: 326 nM
- TGI [53]: 1220 nM
- GI50 [54]: 1830 nM
- TGI [54]: 4410 nM
- GI50 [36]: 175 nM
- TGI [36]: 333 nM
- GI50 [37]: 2080 nM
- TGI [37]: 5880 nM
- GI50 [38]: 228 nM
- TGI [38]: 628 nM
- GI50 [39]: 2340 nM
- TGI [39]: 8840 nM
- GI50 [40]: 338 nM
- TGI [40]: 1510 nM
- GI50 [55]: 173 nM
- TGI [55]: 324 nM
- GI50 [41]: 728 nM
- TGI [41]: 2460 nM
- GI50 [56]: 220 nM
- TGI [56]: 571 nM
- GI50 [57]: 3600 nM
- TGI [57]: 15200 nM
- GI50 [42]: 325 nM
- TGI [42]: 913 nM
- GI50 [58]: 180 nM
- TGI [58]: 423 nM
